{"source": "patent US9296716B2", "about": "“Androgen receptor ligands” (THE PROVOST, FELLOWS, FOUNDATION SCHOLARS, & THE OTHER …, priority 2011, dated 2016)"}
{"molecular_target": "T1, AR-LBD wt (Homo sapiens, UniProt P10275)", "T1 sequence (P10275 669-900 limits assumed)": "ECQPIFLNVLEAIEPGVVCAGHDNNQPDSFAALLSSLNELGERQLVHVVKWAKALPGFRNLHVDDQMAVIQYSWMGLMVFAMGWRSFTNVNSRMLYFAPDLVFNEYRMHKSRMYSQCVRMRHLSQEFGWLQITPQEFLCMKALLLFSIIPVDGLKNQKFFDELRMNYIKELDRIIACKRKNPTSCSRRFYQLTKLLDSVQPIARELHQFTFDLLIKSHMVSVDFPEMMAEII", "test": "Lanthascreen TR-FRET AR coactivator (D11-FxxLF) assay, AR-LBD wt", "assay_type": "biochemical", "conditions": "TR-FRET in agonist and antagonist mode"}
{"smiles": "C/C(=N\\NC(=O)c1cc2ccccc2cc1O)C1C(=O)c2ccccc2C1=O", "note": "[MDG603]", "type of AR antagonism (full / partial)": "full AR antagonists"}
{"molecular_target": "T1, AR-LBD wt", "test": "Lanthascreen TR-FRET AR coactivator (D11-FxxLF) assay, AR-LBD wt", "assay_type": "biochemical", "conditions": "TR-FRET, D11-FxxLF peptide, DHT = EC80; read-out: Activity (AR wt TR-FRET)", "units": {"IC50": "µM"}}
{"smiles": "O=C(N/N=C/c1cc(Cl)ccc1O)c1ccc2ccccc2c1", "note": "[MDG622]", "IC50": "> 100"}
{"smiles": "CCOc1c(Cl)cc(/C=N/NC(=O)c2cc3c(ccc4ccccc43)o2)cc1Cl", "note": "[MDG514]", "IC50": "> 100"}
{"smiles": "COc1cc2ccccc2cc1C(=O)N/N=C/c1ccccc1O", "note": "[MDG600]", "IC50": "> 100"}
{"smiles": "C/C(=N\\NC(=O)c1cc2ccccc2cc1O)c1ccc2ccccc2c1", "note": "[MDG626]", "IC50": "> 100"}
{"smiles": "CCCOc1ccc(/C=N/NC(=O)c2cc3c(ccc4ccccc43)o2)cc1OCC", "note": "[MDG510]", "IC50": "> 100"}
{"smiles": "CCOc1cc(/C=N/NC(=O)c2cc3ccccc3o2)cc(I)c1OC", "note": "[MDG598]", "IC50": "> 100"}
{"smiles": "O=C(C/C=N/C=N/NC(=O)c1ccccc1O)c1ccccc1O", "note": "[MDG601]", "IC50": "> 100"}
{"smiles": "O=C(N/N=C/c1cccc(O)c1O)c1ccccc1", "note": "[MDG485]", "IC50": "> 100"}
{"smiles": "C/C(=N\\NC(=O)c1cc2ccccc2cc1O)C1C(=O)c2ccccc2C1=O", "note": "[MDG603]", "IC50": "11.3 ± 2.6"}
{"smiles": "COc1ccccc1/C=N/NC(=O)c1cc2ccccc2cc1O", "note": "[MDG619]", "IC50": "> 100"}
{"smiles": "CCCOc1ccc(/C=N/NC(=O)c2cc3c(ccc4ccccc43)o2)cc1OC", "note": "[MDG509]", "IC50": "> 100"}
{"smiles": "O=C(N/N=C/c1ccc(OCc2ccccc2)cc1)c1cc2c(ccc3ccccc32)o1", "note": "[MDG499]", "IC50": "> 100"}
{"smiles": "O=C(N/N=C/c1cc2ccccc2cc1O)c1ccc(C(=O)N/N=C/c2cc3ccccc3cc2O)cc1", "note": "[MDG602]", "IC50": "> 100"}
{"smiles": "O=C(N/N=C(\\c1ccccc1)c1ccc2ccccc2c1)c1cc2ccccc2cc1O", "note": "[MDG627]", "IC50": "> 100"}
{"smiles": "COc1ccc(/C=N/NC(=O)c2cc3c(ccc4ccccc43)o2)cc1C", "note": "[MDG504]", "IC50": "> 100"}
{"smiles": "O=C(N/N=C/c1ccc(Cl)c([N+](=O)[O-])c1)c1cc2ccccc2cc1O", "note": "[MDG623]", "IC50": "> 100"}
{"smiles": "O=C(N/N=C/c1cccc(Cl)c1O)c1cc2ccccc2cc1O", "note": "[MDG618, 3-hydroxy-N′-(2-hydroxy-3-chlorobenzylidene)-2-naphthohydrazide]", "IC50": "> 200"}
{"smiles": "COc1ccc(/C=N/NC(=O)c2cc3ccccc3cc2O)cc1O", "note": "[MDG494]", "IC50": "> 100"}
{"smiles": "O=C(N/N=C/c1cccc(O)c1O)c1ccccc1O", "note": "[MDG486]", "IC50": "> 100"}
{"smiles": "Nc1ccccc1/C=N/NC(=O)c1cc2ccccc2cc1O", "note": "[MDG632]", "IC50": "> 100"}
{"smiles": "COc1ccc(/C=N/NC(=O)c2cc3c(ccc4ccccc43)o2)cc1O", "note": "[MDG507]", "IC50": "> 100"}
{"smiles": "O=C(N/N=C/c1cc(I)ccc1O)c1cc2ccccc2cc1O", "note": "[MDG613]", "IC50": "> 100"}
{"smiles": "COc1cc(/C=N/NC(=O)c2cc3c(ccc4ccccc43)o2)c(Br)cc1O", "note": "[MDG516]", "IC50": "> 100"}
{"smiles": "COc1ccccc1/C=N/NC(=O)c1ccc2ccccc2c1O", "note": "[MDG599]", "IC50": "> 100"}
{"smiles": "CCOc1cc(/C=N/NC(=O)c2cc3ccccc3cc2O)ccc1O", "note": "[MDG481]", "IC50": "> 100"}
{"smiles": "COc1cc(/C=N/NC(=O)c2cc3c(ccc4ccccc43)o2)cc(OC)c1OC", "note": "[MDG511]", "IC50": "> 100"}
{"smiles": "O=C(N/N=C/c1cc(Cl)ccc1[N+](=O)[O-])c1cc2ccccc2cc1O", "note": "[MDG633]", "IC50": "> 100"}
{"smiles": "C/C(=N\\NC(=O)c1cc2ccccc2cc1O)c1cc(Cl)ccc1O", "note": "[MDG621, 3-hydroxy-N′-[(1E)-1-(2-hydroxy-5-chlorophenyl)ethylidene]-2-naphthohydrazide]", "IC50": "> 100"}
{"smiles": "COc1cc(/C=N/NC(=O)c2cc3c(ccc4ccccc43)o2)cc(Cl)c1OCc1ccccc1", "note": "[MDG515]", "IC50": "> 100"}
{"smiles": "O=C(N/N=C/c1ccc2ccccc2c1)c1cc2ccccc2cc1O", "note": "[MDG625]", "IC50": "> 100"}
{"smiles": "COc1c(Cl)cc(/C=N/NC(=O)c2cc3c(ccc4ccccc43)o2)cc1Cl", "note": "[MDG513]", "IC50": "> 100"}
{"smiles": "O=C(N/N=C/c1cccc2ccccc12)c1cc2ccccc2cc1O", "note": "[MDG607]", "IC50": "> 100"}
{"smiles": "CC(C)Oc1ccc(/C=N/NC(=O)c2cc3c(ccc4ccccc43)o2)cc1", "note": "[MDG502]", "IC50": "> 100"}
{"smiles": "O=C(N/N=C/c1cccnc1)c1cc2ccccc2cc1O", "note": "[MDG482]", "IC50": "> 100"}
{"smiles": "Cc1ccc(O)c(/C=N/NC(=O)c2cc3ccccc3cc2O)c1", "note": "[MDG609]", "IC50": "> 100"}
{"smiles": "COc1cc(Br)cc(/C=N/NC(=O)c2cc3c(ccc4ccccc43)o2)c1O", "note": "[MDG501]", "IC50": "> 100"}
{"smiles": "COc1ccc(/C=N/NC(=O)c2cc3c(ccc4ccccc43)o2)c2ccccc12", "note": "[MDG503]", "IC50": "> 100"}
